22 molecules from patent US20110201628A1, “HETEROCYCLIC JAK KINASE INHIBITORS” (priority 2008, published 2011) can be followed below.

For orientation: IC50 means the concentration needed to halve the response being measured.

Structures are written as SMILES.

Assay [1] addresses T1, N-terminal GST-tagged, recombinant, human JAK2 (amino acids 831-1132) (Homo sapiens, UniProt O60674).
T1 construct: human JAK2 (amino acids 831-1132, PLAZA database pAZB0359); GST (N); host or cells: insect cells
In words: JAK2 mobility shift assay on Caliper LC3000 (Method 2). It is filed as biochemical. To be noted: 0.3 nM JAK2 enzyme, 5 mM ATP, 1.5 μM SRCtide, 90 minutes room temperature. How it is done:
Janus kinase 2 (JAK2) activity was also determined by measuring the kinase's ability to phosphorylate a tyrosine residue within a peptide substrate using a mobility shift assay on a Caliper LC3000 reader (Caliper, Hopkinton, Mass.), which measures fluorescence of the phosphorylated and unphosphorylated substrate and calculates a ratiometric value to determine percent turnover.
To measure JAK2 kinase activity, an in-house purified enzyme was used. […] After incubation of the kinase with a FAM labeled SRCtide substrate, adenosine triphosphate (ATP), and MgCl2 for 90 minutes at room temperature, the kinase reaction was stopped by the addition of 36 mM ethylenediaminetetraacetic acid (EDTA). The reaction was performed in 384 well microtitre plates and the reaction products were detected using the Caliper LC3000 Reader.

The target in assay [2] is T2, C-terminal His6-tagged, recombinant, human JAK2, amino acids 808-end (Homo sapiens, UniProt O60674).
T2 construct: His6 (C); purchased Upstate Biotechnology MA; host or cells: baculovirus in Sf21 cells
In words: JAK2 kinase Alphascreen assay (Method 1). The class given is biochemical. The note with it: Alphascreen, 150 pM JAK2 enzyme, 5 mM ATP, 80 nM Tyk2 peptide, 60 minutes room temperature; read-out: IC50 Assay (Method 1). How it is done:
To measure JAK2 kinase activity, a commercially available purified enzyme may be used. […] After incubation of the kinase with a biotinylated substrate and adenosine triphosphate (ATP) for 60 minutes at room temperature, the kinase reaction may be stopped by the addition of 30 mM ethylenediaminetetraacetic acid (EDTA). The reaction may be performed in 384 well microtitre plates and the reaction products may be detected with the addition of streptavidin coated Donor Beads and phosphotyrosine-specific antibodies coated Acceptor Beads using the EnVision Multilabel Plate Reader after an overnight incubation at room temperature. “Tween 20” is a registered trademark of ICI Americas, Inc.
Background: Alpha assays give light when donor and acceptor beads are brought close together.

T2 sequence (O60674 808-1132 limits assumed): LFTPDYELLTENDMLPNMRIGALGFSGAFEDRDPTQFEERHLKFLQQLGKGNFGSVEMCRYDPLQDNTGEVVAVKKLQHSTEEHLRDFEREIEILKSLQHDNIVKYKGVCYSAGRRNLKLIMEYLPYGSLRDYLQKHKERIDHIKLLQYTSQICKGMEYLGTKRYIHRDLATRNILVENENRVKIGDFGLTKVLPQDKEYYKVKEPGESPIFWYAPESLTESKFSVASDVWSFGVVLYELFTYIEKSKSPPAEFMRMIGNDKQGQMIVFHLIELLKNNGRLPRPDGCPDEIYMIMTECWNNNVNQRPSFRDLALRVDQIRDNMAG
T1 sequence (O60674 831-1132): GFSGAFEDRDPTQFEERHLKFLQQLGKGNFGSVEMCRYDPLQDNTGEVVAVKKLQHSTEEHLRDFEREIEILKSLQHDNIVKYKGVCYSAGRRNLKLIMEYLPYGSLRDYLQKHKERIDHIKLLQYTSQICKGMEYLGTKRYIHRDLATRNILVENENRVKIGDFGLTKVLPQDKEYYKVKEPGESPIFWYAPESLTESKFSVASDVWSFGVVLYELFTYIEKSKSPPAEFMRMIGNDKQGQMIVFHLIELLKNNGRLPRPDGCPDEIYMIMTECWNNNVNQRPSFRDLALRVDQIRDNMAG

Consider `COc1cnc(C(C)Nc2nc(Nc3cn(C)cn3)c3cc[nH]c3n2)nc1` (racemic) [Example 27, N^2-[1-(5-Methoxypyrimidin-2-yl)ethyl]-N^4-(1-methyl-1H-imidazol-4-yl)-7H-pyrrolo[2,3-d]pyrimidine-2,4-diamine], for which the IC50 in assay [1] is 270 nM.
Same read-out and setting: to `CC(Nc1nc(Nc2cn(C)cn2)c2ccc(C(F)(F)F)nc2n1)c1ncc(F)cc1F` (racemic) [Example 33, N^2-[1-(3,5-Difluoropyridin-2-yl)ethyl]-N^4-(1-methyl-1H-imidazol-4-yl)-7-(trifluoromethyl)pyrido[2,3-d]pyrimidine-2,4-diamine] belongs 26 nM.
With `CCn1ncc2c(Nc3cn(C)cn3)nc(NC(C)c3ncc(F)cn3)nc21` (single isomer, unassigned) [Example 9(b), 1-Ethyl-N^6-[1-(5-fluoropyrimidin-2-yl)ethyl]-N^4-(1-methyl-1H-imidazol-4-yl)-1H-pyrazolo[3,4-d]pyrimidine-4,6-diamine], the half-maximal inhibitory concentration (IC50) in assay [1] was 40 nM.
The same measure, in the same setting: to `CC(Nc1nc(Nc2cn(C)cn2)c2ccn(CCF)c2n1)c1ncc(F)cn1` (single isomer, unassigned) [Example 22(a), 7-(2-Fluoroethyl)-N^2-[1-(5-fluoropyrimidin-2-yl)ethyl]-N^4-(1-methyl-1H-imidazol-4-yl)-7H-pyrrolo[2,3-d]pyrimidine-2,4-diamine] belongs 2320 nM.
On to `CC(Nc1nc(Nc2cn(C)cn2)c2ccn(CCF)c2n1)c1ncc(F)cn1` (single isomer, unassigned) [Example 22(b), 7-(2-Fluoroethyl)-N^2-[1-(5-fluoropyrimidin-2-yl)ethyl]-N^4-(1-methyl-1H-imidazol-4-yl)-7H-pyrrolo[2,3-d]pyrimidine-2,4-diamine], for which, in assay [1], the IC50 came to 7 nM.
For the molecule `CC(Nc1nc(Nc2cn(C)cn2)c2ccncc2n1)c1ncc(F)cc1F` (single isomer, unassigned) [Example 43(a), N^2-[1-(3,5-Difluoropyridin-2-yl)ethyl]-N^4-(1-methyl-1H-imidazol-4-yl)pyrido[3,4-d]pyrimidine-2,4-diamine], in assay [2], the IC50 is below 3 nM.
Take `CC(Nc1nc(Nc2cn(C)cn2)c2ccncc2n1)c1ncc(F)cc1F` (single isomer, unassigned) [Example 43(b), N^2-[1-(3,5-Difluoropyridin-2-yl)ethyl]-N^4-(1-methyl-1H-imidazol-4-yl)pyrido[3,4-d]pyrimidine-2,4-diamine]: the IC50 in assay [2] worked out at 1180 nM.
On the same count and under the same terms, for `CC(Nc1nc(Nc2cn(C)cn2)c2ccccc2n1)c1ncc(F)cn1` (single isomer, unassigned) [Example 45(a), N^2-[1-(5-Fluoropyrimidin-2-yl)ethyl]-N^4-(1-methyl-1H-imidazol-4-yl)quinazoline-2,4-diamine] the value was 64 nM; for `CC(Nc1nc(Nc2cn(C)cn2)c2ccccc2n1)c1ncc(F)cn1` (single isomer, unassigned) [Example 45(b), N^2-[1-(5-Fluoropyrimidin-2-yl)ethyl]-N^4-(1-methyl-1H-imidazol-4-yl)quinazoline-2,4-diamine], 3 nM; for `Cc1ccc(S(=O)(=O)n2ccc3c(Nc4cn(C)cn4)nc(N[C@@H](C)c4ncc(F)cn4)nc32)cc1` [Example 3, N^2-[(1S)-1-(5-Fluoropyrimidin-2-yl)ethyl]-N^4-(1-methyl-1H-imidazol-4-yl)-7-[(4-methylphenyl)sulfonyl]-7H-pyrrolo[2,3-d]pyrimidine-2,4-diamine], 213 nM.
`C[C@H](Nc1nc(Nc2cn(C)cn2)c2[nH]ccc2n1)c1ncc(F)cn1` [Example 6, N^2-[(1S)-1-(5-Fluoropyrimidin-2-yl)ethyl]-N^4-(1-methyl-1H-imidazol-4-yl)-5H-pyrrolo[3,2-d]pyrimidine-2,4-diamine]: the IC50 in assay [2] was below 3 nM.
Same read-out and setting: to `Cc1nc2c(Nc3cn(C)cn3)nc(N[C@@H](C)c3ncc(F)cn3)nc2s1` [Example 7, N^5-[(1S)-1-(5-Fluoropyrimidin-2-yl)ethyl]-2-methyl-N^7-(1-methyl-1H-imidazol-4-yl)[1,3]thiazolo[5,4-d]pyrimidine-5,7-diamine] belongs 1900 nM; to `C[C@H](Nc1nc2c(c(Nc3cn(C)cn3)n1)CCC2)c1ncc(F)cn1` [Example 8, N^2-[(1S)-1-(5-Fluoropyrimidin-2-yl)ethyl]-N^4-(1-methyl-1H-imidazol-4-yl)-6,7-dihydro-5H-cyclopenta[d]pyrimidine-2,4-diamine], 16 nM; to `C[C@H](Nc1nc(Nc2cn(C)cn2)c2cnn(CCO)c2n1)c1ncc(F)cn1` [Example 15, 2-(6-{[(1S)-1-(5-Fluoropyrimidin-2-yl)ethyl]amino}-4-[(1-methyl-1H-imidazol-4-yl)amino]-1H-pyrazolo[3,4-d]pyrimidin-1-yl)ethanol], 3 nM.
The same measure, in the same setting: for `C[C@H](Nc1nc(Nc2cn(C)cn2)c2cccnc2n1)c1ncc(F)cn1` [Example 16, N^2-[(1S)-1-(5-Fluoropyrimidin-2-yl)ethyl]-N^4-(1-methyl-1H-imidazol-4-yl)pyrido[2,3-d]pyrimidine-2,4-diamine] the value was below 3 nM; for `COc1ccc2nc(N[C@@H](C)c3ncc(F)cn3)nc(Nc3cn(C)cn3)c2c1` [Example 28, N^2-[(1S)-1-(5-Fluoropyrimidin-2-yl)ethyl]-6-methoxy-N^4-(1-methyl-1H-imidazol-4-yl)quinazoline-2,4-diamine], 670 nM; for `COc1ccc2c(Nc3cn(C)cn3)nc(N[C@@H](C)c3ncc(F)cn3)nc2c1` [Example 30, N^2-[(1S)-1-(5-Fluoropyrimidin-2-yl)ethyl]-7-methoxy-N^4-(1-methyl-1H-imidazol-4-yl)quinazoline-2,4-diamine], 4 nM.
On the same count and under the same terms, for `C[C@H](Nc1nc(Nc2cn(C)cn2)c2ccc(NC3CC3)nc2n1)c1ncc(F)cn1` [Example 36, N^7-Cyclopropyl-N^2-[(1S)-1-(5-fluoropyrimidin-2-yl)ethyl]-N^4-(1-methyl-1H-imidazol-4-yl)pyrido[2,3-d]pyrimidine-2,4,7-triamine] the value was 3 nM; for `C[C@H](Nc1ccc2c(Nc3cn(C)cn3)nc(N[C@@H](C)c3ncc(F)cn3)nc2n1)c1ncc(F)cn1` [Example 39, N^2,N^7-bis[(1S)-1-(5-fluoropyrimidin-2-yl)ethyl]-N^4-(1-methyl-1H-imidazol-4-yl)pyrido[2,3-d]pyrimidine-2,4,7-triamine], 3 nM; for `C[C@H](Nc1nc(Nc2cn(C)cn2)c2ccc(Cl)nc2n1)c1ncc(F)cn1` [Example 42, 7-Chloro-N^2-[(1S)-1-(5-fluoropyrimidin-2-yl)ethyl]-N^4-(1-methyl-1H-imidazol-4-yl)pyrido[2,3-d]pyrimidine-2,4-diamine], below 3 nM.
For `C[C@H](Nc1nc(Nc2cn(C)cn2)c2ccccc2n1)c1ncc(F)cn1` [Example 45, N^2-[(1S)-1-(5-Fluoropyrimidin-2-yl)ethyl]-N^4-(1-methyl-1H-imidazol-4-yl)quinazoline-2,4-diamine], in assay [2], the IC50 is below 3 nM.
With `C[C@H](Nc1nc(Nc2cn(C)cn2)c2cn[nH]c2n1)c1ncc(F)cn1` [Example 46, N^6-[(1S)-1-(5-Fluoropyrimidin-2-yl)ethyl]-N^4-(1-methyl-1H-imidazol-4-yl)-1H-pyrazolo[3,4-d]pyrimidine-4,6-diamine], the IC50 in assay [2] amounted to 21 nM.
